Test results: publication PMC12592502, “Unraveling the mechanisms behind the enhanced efficacy of β-lactam-based sideromycins” (Communications Biology, 2025)
Converted amounts (≈) assume the structure as drawn. Like-named read-outs stand apart in the source and are kept apart here.

Tests used:
[1] = tested on: K. pneumoniae ATCC 13883; assay: MIC, broth microdilution (CLSI); type: cell-based, Klebsiella pneumoniae; conditions: for MIC with β-lactamase inhibitor (βI): + 4 μg/mL clavulanic acid
Protocol: (§1) All bacterial strains (see description and sources Table S1) were stored at −80 °C, and grown on tryptone soya agar (TSA) at 35 °C. The iron-deprived (ID)-MHBCA (cation-adjusted Muller-Hinton Broth, Becton Dickinson, Mississauga, ON, Canada) medium was prepared as reported by refs. [21],[50]. Briefly, MHBCA was treated with 10% Chelex® 50-100 mesh (Sigma) and stirred for 6 h at room temperature. The resin was removed by filtration. Divalent Ca^2+ (CaCl2), Mg^2+ (MgCl2), and Zn^2+(ZnSO4), were then added in the iron-depleted medium at 22, 12, and 1 μg/ml respectively. Finally, the pH was adjusted to 7.3, and the medium was sterilized with a 0.2-μm filter. Regular MHBCA (i.e., not treated with Chelex®) was used to compare the inhibitory activity of conjugates in iron-sufficient conditions. The resin used for Chelex treatment was always fresh and had never been regenerated, ensuring consistent iron removal.
(§2) Minimal inhibitory concentrations (MICs) were performed using a broth microdilution technique according to the Clinical and Laboratory Standards Institute (CLSI) guidelines. MICs were determined in MHBCA and in ID-MHBCA. To check the impact of β-lactamases, MICs in the presence of a β-lactamase inhibitor were also determined. The inhibitor was homogenized at 2X the final concentration and added to the bacterial inoculum just before distributing cells into the wells containing the drug dilutions. The final concentration of each inhibitor was 4 μg/mL for clavulanic acid (tested against K. pneumoniae) and 200 μg/mL for 3-aminophenylboronic acid (tested against P. aeruginosa and A. baumannii).

[2] = tested on: P. aeruginosa ATCC 27853; assay: MIC, broth microdilution (CLSI); type: cell-based, Pseudomonas aeruginosa
Protocol: as §1, with “conditions.” for “conditions. The resin used for Chelex treatment was always fresh and had never been regenerated, ensuring consistent iron removal.”
as §2

[3] = tested on: A. baumannii ATCC 19606; assay: MIC, broth microdilution (CLSI); type: cell-based, Acinetobacter baumannii; conditions: for MIC: Acinetobacter baumannii
Protocol: as §1, §2

[4] = tested on: E. coli ΔentE; assay: MIC, Keio mutant; type: cell-based, Escherichia coli; conditions: Escherichia coli
Protocol: as §1, with “conditions.” for “conditions. The resin used for Chelex treatment was always fresh and had never been regenerated, ensuring consistent iron removal.”
as §2

[5] = tested on: E. coli ΔfecA; assay: MIC, Keio mutant; type: cell-based, Escherichia coli; conditions: Escherichia coli
Protocol: as §1, with “conditions.” for “conditions. The resin used for Chelex treatment was always fresh and had never been regenerated, ensuring consistent iron removal.”
as §2

[6] = tested on: E. coli ΔfepA; assay: MIC, Keio mutant; type: cell-based, Escherichia coli; conditions: Escherichia coli
Protocol: as §1, with “conditions.” for “conditions. The resin used for Chelex treatment was always fresh and had never been regenerated, ensuring consistent iron removal.”
as §2

[7] = tested on: E. coli ΔtonB; assay: MIC, Keio mutant; type: cell-based, Escherichia coli; conditions: Escherichia coli
Protocol: as §1, with “conditions.” for “conditions. The resin used for Chelex treatment was always fresh and had never been regenerated, ensuring consistent iron removal.”
as §2

[8] = tested on: E. coli lptD4213; assay: MIC, hyperpermeable mutant; type: cell-based, Escherichia coli; conditions: Escherichia coli
Protocol: as §1, §2

[9] = tested on: P. aeruginosa 2302 MexAB, MexCD, MexEF upregulated; assay: MIC, efflux pump overexpressing strain; type: cell-based, Pseudomonas aeruginosa; conditions: Pseudomonas aeruginosa
Protocol: as §2

Structure (SMILES): O=C(CCC(=O)N(CCCCNC(=O)c1cccc(O)c1O)CCCNC(=O)c1cccc(O)c1O)NCCCCCN(O)C(=O)CCCC(=O)NC(C(=O)NC1C(=O)N2C(C(=O)O)=C(Cl)CSC12)c1ccccc1 (centres unmarked) [MCEF, mixed ligand bis-catechol-mono-hydroxamate-cefaclor]
- MIC ratio unconjugated β-lactam/conjugate ([1]; ID-MHBCA): <0.016
- MIC ([1]; ID-MHBCA (−), 0 µg/mL supplemental iron): >200 µM
- MIC with β-lactamase inhibitor (βI) ([1]; ID-MHBCA): 200 µM
- MIC ([1]; Klebsiella pneumoniae, ATCC13883, ID-MHBCA (−), 0 µg/mL supplemental iron): > 200 µM
- MIC ([1]; Klebsiella pneumoniae, ATCC13883, ID-MHBCA + 1 µg/mL supplemental iron): > 200 µM
- MIC ([1]; Klebsiella pneumoniae, ATCC13883, MHBCA (+)): > 200 µM
- MIC ratio unconjugated β-lactam/conjugate ([1]; MHBCA): <0.016
- MIC ([1]; MHBCA (+)): >200 µM
- MIC with β-lactamase inhibitor (βI) ([1]; MHBCA): 13 µM
- MIC ratio unconjugated β-lactam/conjugate ([2]; ID-MHBCA): No activity
- MIC ([2]; ID-MHBCA (−), 0 µg/mL supplemental iron, read-out: MIC): >200 µM
- MIC ratio unconjugated β-lactam/conjugate ([2]; MHBCA): No activity
- MIC ([2]; MHBCA (+), no inhibitor, listed as Mix-CEF, read-out: MIC): > 200 µM
- MIC ([2]; MHBCA (+), no inhibitor, read-out: MIC): >200 µM
- MIC in combination with PAβN ([2]; MHBCA, + 25 µg/mL PAβN): > 200 µM
- MIC ([2]; Pseudomonas aeruginosa, ATCC27853, ID-MHBCA (−), 0 µg/mL supplemental iron, read-out: MIC): > 200 µM
- MIC ([2]; Pseudomonas aeruginosa, ATCC27853, ID-MHBCA + 1 µg/mL supplemental iron, read-out: MIC): > 200 µM
- MIC ([2]; Pseudomonas aeruginosa, ATCC27853, ID-MHBCA, + 200 μg/mL APB, read-out: MIC with β-lactamase inhibitor (βI)): > 200 µM
- MIC ([2]; Pseudomonas aeruginosa, ATCC27853, MHBCA (+), no inhibitor, read-out: MIC): > 200 µM
- MIC ([2]; Pseudomonas aeruginosa, ATCC27853, MHBCA, + 200 μg/mL 3-aminophenylboronic acid (APB), read-out: MIC with β-lactamase inhibitor (βI)): > 200 µM
- MIC ([3]; ATCC19606, ID-MHBCA (−), 0 µg/mL supplemental iron, read-out: MIC): 0.2 µM (≈ 0.216 µg/mL)
- MIC ([3]; ATCC19606, ID-MHBCA + 0.1 µg/mL supplemental iron, read-out: MIC): 1.6 µM
- MIC ([3]; ATCC19606, ID-MHBCA + 1 µg/mL supplemental iron, read-out: MIC): > 6.3 µM
- MIC ([3]; ATCC19606, ID-MHBCA, + 200 μg/mL APB, read-out: MIC with β-lactamase inhibitor (βI)): 0.012 µM
- MIC ([3]; ATCC19606, MHBCA (+), no inhibitor, read-out: MIC): 1.6 µM (≈ 1.73 µg/mL)
- MIC ([3]; ATCC19606, MHBCA, + 200 μg/mL APB, read-out: MIC with β-lactamase inhibitor (βI)): 0.4 µM
- MIC ratio unconjugated β-lactam/conjugate ([3]; ID-MHBCA): >1024
- MIC ratio 0/1 ([3]; ID-MHBCA, 0 and 1 µg/mL supplemental iron (Table S2)): > 32
- MIC ratio 1/0 ([3]; ID-MHBCA, 1 versus 0 µg/mL supplemental iron (peer review file table)): > 32
- MIC ratio unconjugated β-lactam/conjugate ([3]; MHBCA): >128
- MIC in combination with PAβN ([3]; MHBCA, + 25 µg/mL PAβN): > 6.3 µM
- MIC ([4]; ID-MHBCA): 1.6 µM (≈ 1.73 µg/mL)
- MIC ([4]; MHBCA): 13 µM (≈ 14.1 µg/mL)
- MIC ([5]; ID-MHBCA): > 200 µM
- MIC ([5]; MHBCA): 13 µM (≈ 14.1 µg/mL)
- MIC ([6]; ID-MHBCA): > 200 µM
- MIC ([6]; MHBCA): 13 µM (≈ 14.1 µg/mL)
- MIC [7]: 25 µM (≈ 27 µg/mL)
- MIC ([8]; LPTD4213, lptD4213, ID-MHBCA (−)): 1.6 µM (≈ 1.73 µg/mL)
- MIC ([8]; LPTD4213, lptD4213, MHBCA (+)): 1.6 µM (≈ 1.73 µg/mL)
- MIC [9]: > 100 µM
